Assay results taken from ChEMBL document CHEMBL3507680, “University of Dundee, Gates Library screen for HepG2 cell viability”.

Test: Human HepG2 cell viability assay in 384 well format
Assay type: toxicity, cell-based
Set-up: dose 125 nL, time 70.5 hour; concentration not given beside the values
Conditions: HepG2 cells, read-out: Inhibition

SMILES	cytotoxicity at 70.5 h [%]
Cn1ccnc1CN(Cc1ccccn1)Cc1ccccc1Cl	1.27
CN(C)CCNC(=O)c1cc(-c2cnc(N3CCCC3)nc2)cn1C	21.5
Cc1nc(-c2ccccc2)n(CC(=O)NC2CCCCC2)n1	-14.1
COc1cccc(CC2(C(=O)O)CCN(c3ccc(Cl)cn3)CC2)c1	-3.25
CC(C)C1CN(C(=O)c2cccs2)CCS1 (stereo not drawn)	-4.53
Fc1ccccc1CN1C[C@@H]2CN(Cc3cccnc3)CCO[C@@H]2C1	-11.8
COc1ccc(C)cc1S(=O)(=O)NCCC(O)c1ccccc1 (stereo not drawn)	-10.5
CC1(C)CC(N(Cc2ccccc2)Cc2ncc[nH]2)CC(C)(C)N1	-1.78
COC(=O)C(O)C1CCN(CCc2ccc(C)cc2)CC1 (stereo not drawn)	9.49
Cc1ccsc1C(=O)N1CCc2ncc(CN3CCCC3)n2CC1	-4.02
CC(C)=CCC1(CO)CCCN(Cc2cnc(N3CCOCC3)nc2)C1 (stereo not drawn)	-6.39
CNC(=O)C(CC(C)C)NC(=O)c1cccc(-c2nc(C)cs2)c1 (stereo not drawn)	15.4
CC(C)N1CC[C@H]2[C@H](C[C@@H](Cn3cccn3)N2c2nccs2)C1	-4.28
O=C(c1cc2c(s1)CCOC2)N1CCCCC1Cn1cccn1 (stereo not drawn)	-7.81
Cc1cnn(CC2CN(CCc3cccs3)CCO2)c1 (stereo not drawn)	-2.69
Cc1nc(C)c(C(=O)N2CCN(CCOc3ccccc3C)CC2)o1	-8.43
CCOc1ccccc1-c1noc(CN2CCOC(CN(C)C)C2)n1 (stereo not drawn)	-10.8
Cc1oc(C(=O)O)cc1S(=O)(=O)Nc1ccc(Cl)cc1F	-0.71
Cn1ccc(C(=O)Nc2cc(F)ccc2OCC2CCCO2)cc1=O (stereo not drawn)	-8.3
CS(=O)(=O)N1CCc2ccc(=O)n(CC3CCOCC3)c2CC1	-7.42
O=C1NCCCCC1NC(=O)C1(c2ccccc2)CCOCC1 (stereo not drawn)	-1.6
CN(C)CCC1CCN(c2cc(N3CCCC3CO)ncn2)CC1 (stereo not drawn)	11.7
Cc1ccc(NC(=O)N2CCCC(O)C2)c(Br)c1 (stereo not drawn)	6.64

SMILES	cytotoxicity at 70.5 h [%]
O=C(c1ccsc1)N1CCc2c(CN3CCCC3)n[nH]c2C1	0.233
Cc1nc(Cc2ccc(F)cc2)cc(C2COCCN2)n1 (stereo not drawn)	2.37
O=C(NCCc1c[nH]c2ccccc12)C1(n2cnnn2)CCCCC1	-28.6
CC(=O)Nc1nc(-c2ccc(C)c(C)c2)c[nH]1	0.35
COCCO[C@@H]1CCN(C(=O)c2ccc(C)o2)[C@@H]1Cc1cnn(C)c1	-2.12
Cc1cc(NC(=O)CNC2CCCN(c3cccnn3)C2)on1 (stereo not drawn)	43.8
Cc1cnn(CC2CCCN2C(=O)c2ccc(OCC3CC3)nc2)c1 (stereo not drawn)	-6.47
Cc1cccc(CN2CCN(C(=O)c3ccc(C)[nH]c3=O)CC2)c1	-7.34
CCC(NCc1ccccc1)c1ccccc1OCC(=O)NC (stereo not drawn)	-6.53
CCC(O)CN1CCN(C(=O)c2cccn2Cc2cccnc2)CC1 (stereo not drawn)	17.3
CC(C)c1nc(CCN(C)c2nccc(N3CCCC(O)C3)n2)no1 (stereo not drawn)	-8.03
Cn1cnc2c1C(COCC1CC1)CN(Cc1ccc3c(c1)OCO3)C2 (stereo not drawn)	36.5
C/C(=C/c1ccccc1)CNCc1cccc(C(N)=O)c1	-10.9
Cc1cc(C(N)=O)c2c(Br)cccc2n1	-13.6
CCN(CC)CCNc1nc(C(C)C)nc2c(C)nn(CC)c12	-2.61
CCCc1nc(C)cc(N2CCNC(C(=O)NCc3cccnc3)C2)n1 (stereo not drawn)	31
Cc1occc1CN(C)C(=O)Nc1ccc(=O)n(C)c1	-7.93
Cc1cc(CN2C[C@@H]3CN(C(=O)c4ccsc4)CCO[C@@H]3C2)no1	5.07
Cc1cc2c(C)cc(O)cc2c(=O)o1	-14.8
C/N=C1\c2cc3cc(OC)ccc3n2CCN1C	-6.1
O=C1CCCCN1Cc1cccc(NC(=O)N2CCSCC2)c1	-6.83
COc1cccc(NC(=O)NCC2CCCN(C3CCOCC3)C2)c1 (stereo not drawn)	-8.3
O=C(NCCc1cccc(F)c1)NCC(O)c1cccc(F)c1 (stereo not drawn)	-5.32

SMILES	cytotoxicity at 70.5 h [%]
Cc1cc(C(=O)CN2CCN(c3nccs3)CC2)c(C)n1C1CC1	-10.5
Cc1cccc(CN(Cc2ccccc2)Cc2nccs2)n1	-11.1
CCCc1nc(C(=O)NCc2cccnc2-n2cncn2)cs1	7.67
CC(C)CCCC(C)NC(=O)c1ccc(OCC(N)=O)cc1 (stereo not drawn)	-6.3
CC(C)(C)CC(=O)N1CSCC1C(=O)NCc1cccc(C#N)c1 (stereo not drawn)	15.4
Cc1ccccc1C1CCN(C(=O)CCNS(C)(=O)=O)C1 (stereo not drawn)	20.6
Cc1ncc2c(c1-c1noc(-c3cscn3)n1)CCNC2	7.48
CCc1noc(CN(CC(=O)N2CCCCC2)c2cccc(C)c2)n1	-3.01
CCN1C(=O)C(c2ccccc2)CC12CCN(c1ncccn1)CC2 (stereo not drawn)	-18.6
O=C(COc1cccnc1)N1CCCC(n2cccn2)C1 (stereo not drawn)	-2.58
O=S(=O)(N1CCC(n2cccc2)CC1)N1CCCC1c1ccco1 (stereo not drawn)	-10.3
COc1ccc(NC(C)=O)c(N2CCN(C(C)=O)CC2)n1	-0.156
CC(C)C(C)NC(=O)Nc1cccn(C)c1=O (stereo not drawn)	4.29
CNC(=O)c1ccc(C(=O)N2CCC(Nc3cccnn3)CC2)cn1	-4.73
NCCn1cc(C(=O)N2CCNC(=O)C2c2cccc(F)c2)nn1 (stereo not drawn)	-11.9
CSC1(CNC(=O)c2cccc(-n3cccn3)c2)CCOCC1	1.71
O=S(=O)(c1ccccc1)N1CCC[C@]2(C[C@@H](OCC3CC3)CO2)C1	9.43
O=C1NCC[C@]12CN(Cc1ccncc1)C[C@H]2c1ccccc1	-1.85
CC1(C)Cc2c(cnn2-c2cccc(F)c2)C(NC2CCSCC2)C1 (stereo not drawn)	9.46
COc1cc(C)ccc1S(=O)(=O)N[C@H]1CN(C(C)=O)C[C@@H]1C1CC1	18.1
O=C(NS(=O)(=O)c1cc(Cl)ccc1Cl)c1cccc2c1OCCO2	58.5
Cc1ccc2nc(C3CCCN(CC(C)C)C3)nc(O)c2c1 (stereo not drawn)	-2.98
Cc1ccc(CN(C)C(=O)CCn2c(=O)n(C)c3ccccc32)o1	-6.04

SMILES	cytotoxicity at 70.5 h [%]
Cc1noc([C@]23COC[C@H]2CN(C(C)C)C3)n1	1.38
N#CC1COCCN1C(=O)c1ccc2cc[nH]c2c1 (stereo not drawn)	-9.25
CC(=O)N1CCC(C(=O)N2CCCC(Cc3cccc(C)n3)C2)CC1 (stereo not drawn)	-4.08
CCc1ccc(C(=O)N2CCCn3nnc(Cn4cccn4)c3C2)cc1	-5.86
Cc1cccc(CN2CCC3(CCCN(C(=O)N4CCCC4)C3)C2=O)n1 (stereo not drawn)	40
CNC(=O)CNC(=O)NCc1cc2c(s1)CCC(C)(C)C2	2.16
COc1cc(NC(=O)c2nc3ccccc3n(C)c2=O)cc(OC)c1	-14.2
Cc1nc(CN2CCC3(CC2)CC(=O)N(C)c2ccccc23)cs1	-7.28
Cc1nnc([C@@H]2C[C@H]3CN(C(=O)c4sccc4C)C[C@H]3O2)[nH]1	-8.24
CN(C)CCCNC(=O)C1CC(=O)N(c2n[nH]c3cccc(F)c23)C1 (stereo not drawn)	-26.2
O=S(=O)(C1CC1)N1CCn2cc(CNc3ccccn3)nc2C1	-0.935
CCN1CCC2(CC1)C(=O)N(c1ccc(C)nc1)CCN2CC(C)C	-3
O=S1(=O)NCC2(CCCN(Cc3cccnc3)C2)Oc2ncccc21 (stereo not drawn)	26.5
Cc1cccc(CNC(=O)Nc2ccn(CCN(C)C)n2)c1	-7.32
Cc1noc(C)c1CN1CC[C@@H](OCC2CC2)[C@@H](Cc2ccccc2)C1	-4.91
Cc1cn(CC(=O)NC2CCC3(CC2)OCCO3)c2ccccc12	-6.58
CCOc1ccccc1CN(C)C(=O)CN1C(=O)OC[C@@H]1C(C)C	15.5
Cn1ccc(C(=O)NCc2ccc(N3CCCC3)nc2)cc1=O	-5.51
Cc1cc(-c2nn(C)c(Cl)c2CN2CCOCC2CC(=O)O)no1 (stereo not drawn)	-7.35
CN(Cc1ccccc1)C(=O)CN1CCCCC1Cn1cncn1 (stereo not drawn)	1.47
CC(Oc1ccc(C(=O)NCCNS(C)(=O)=O)cn1)c1ccccc1 (stereo not drawn)	-8.66
O=C(COCc1ccco1)Nc1cc(C(F)(F)F)c[nH]c1=O	31.5
COCc1nnc(-c2cccc(C(=O)OC(C)C)c2)o1	-8.2

SMILES	cytotoxicity at 70.5 h [%]
Cc1cc2c(cc1CNC(Cc1cccs1)c1nccs1)OCO2 (stereo not drawn)	1.05
Cc1ccc(CN2CCN(Cc3ccc4nonc4c3)CC2=O)cc1	1.65
COc1c(C)cnc(CN2CCC(N(C)C(=O)C(C)OC)CC2)c1C (stereo not drawn)	7.6
CCC(=O)NCc1cc(C2CC2)n(C2CCCC2)n1	13.9
COc1ccc(OC)c(CN2CCN(Cc3cscn3)CC2)c1	-5.74
Cc1ccc(CN2CCCC3(CCCC(=O)N3C)C2)s1 (stereo not drawn)	-9.33
CC(C)CNC(=O)N1CCC2(CC1)OC(C(N)=O)Cn1ccnc12 (stereo not drawn)	-4.1
CC(Cn1cccn1)NC(=O)NCc1cccnc1 (stereo not drawn)	-9.07
CC(C)CC(CCO)CNC(=O)N1CCOC2(CCCC2)C1 (stereo not drawn)	-1.95
NC(=O)COc1cccc(CN2CCCC2c2ccc[nH]2)c1 (stereo not drawn)	-5.09
CCN(C(=O)Cc1ccc(NC(=O)NC2CC2)cc1)c1ccccc1	-3.6
O=C(c1coc(COc2cccc(F)c2)n1)N1CC[C@H](O)[C@@H](O)C1	-9.89
CC(NC(=O)N1CCCCCC1)c1ccc(S(N)(=O)=O)cc1 (stereo not drawn)	-7.46
CCc1noc(C2CC(=O)N(CCN(C)C)C2)n1 (stereo not drawn)	-3.23
CC(C)Nc1nnc(SCc2nnc(C(C)(C)C)o2)s1	-6.2
CN(C)CC1CN(Cc2nnc(-c3ccccc3Cl)o2)CCO1 (stereo not drawn)	3.65
Cc1cc(NC(=O)CCCn2ccnc2C)nc(C(C)C)n1	0.794
CCS(=O)(=O)N1CC[C@H]2O[C@@H](c3nnc(C)o3)CC[C@H]21	-8.41
CCOCc1ccc(CNC(=O)N2CCC(C(N)=O)C2)cc1 (stereo not drawn)	-2.39
Cc1nnc(C[C@@H]2COC[C@H]3CN(C(=O)c4ccco4)C[C@@H]23)o1	-9.01
c1cc(CNCc2ccnc(N3CCCC3)c2)c2c(c1)OCCO2	5.3
